From patent publication US10329302B2, “Bicyclic-fused heteroaryl or aryl compounds” (Pfizer Inc., priority 2014, dated 2019)
Read-outs that look alike come from different tables or passages of the source.

Legend:
[1] = biological target: human IRAK4 FL (Full Length) (Homo sapiens (Human), UniProt Q9NWZ3); test: IRAK4 Enzymatic DELFIA Assay, Protocol A; format: biochemical
[2] = test system: R848-induced TNFα production by human peripheral blood mononuclear cells (PBMCs); test: R848 Induced TNFα in Human PBMC Assay; format: cell-based
Excerpt: R848 Induced TNFα in Human PBMC Assay.
This protocol is for R848-induced TNFα production by human peripheral blood mononuclear cells (PBMCs). […] The assay is used to assess cell-based potency of small molecule inhibitors of IRAK4 in the absence of serum.
The PBMCs in the interphase layer were collected and washed with PBS via centrifugation multiple times until the supernatant is clear. The purified PBMCs were re-suspended in RPMI (Roswell Park Memorial Institute) media (Sigma-Aldrich).
For the assay, a compound dilution plate containing a top concentration of 4 mM compound in DMSO was serially diluted 4-fold for 11 times. 250 nL of the compound dilution plate was spotted into a 384-well, flat bottom with lid, TC-treated, black with clear bottom, sterile, polystyrene plate (Corning Life Sciences).
10 μL of anti-TNFα antibody labeled with MSD SULFO-TAG at 50 μg/mL was added to each well and allowed to incubate overnight at 4° C.

[3] = human IRAK4 FL, 0.6 mM ATP (KM), read-out: IRAK4 DELFIA Protocol A IC50
[4] = Homo sapiens, PBMC, 3 h, read-out: R848-induced TNFa PBMC IC50 (nM)

human IRAK4 FL (Full Length), sequence (Q9NWZ3 whole entry): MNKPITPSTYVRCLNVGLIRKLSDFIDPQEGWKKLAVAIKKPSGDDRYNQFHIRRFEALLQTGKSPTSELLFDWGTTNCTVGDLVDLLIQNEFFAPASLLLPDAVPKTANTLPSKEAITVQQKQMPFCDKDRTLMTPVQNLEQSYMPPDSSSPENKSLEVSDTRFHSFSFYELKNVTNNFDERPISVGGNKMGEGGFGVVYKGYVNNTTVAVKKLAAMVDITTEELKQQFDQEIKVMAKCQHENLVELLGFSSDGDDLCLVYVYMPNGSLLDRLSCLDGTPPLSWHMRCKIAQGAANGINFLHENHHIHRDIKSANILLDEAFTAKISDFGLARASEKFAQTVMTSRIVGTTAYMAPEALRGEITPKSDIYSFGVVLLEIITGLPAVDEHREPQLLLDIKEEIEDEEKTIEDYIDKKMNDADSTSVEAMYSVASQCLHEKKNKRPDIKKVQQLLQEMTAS

| SMILES | IC50 [1, 3] [nM] | IC50 [2, 4] [nM] | IC50 [1] [nM] | IC50 ([2]; human PBMC, absence of serum, 3 hours, read-out: R848-induced TNFa PBMC IC50) [nM] |
| --- | --- | --- | --- | --- |
| CC[C@@]1(F)C[C@@H](COc2nccc3cc(C(N)=O)c(OC)cc23)NC1=O [Example 256, 1-{[(2S,4R)-4-ethyl-4-fluoro-5-oxopyrrolidin-2-yl]methoxy}-7-methoxyisoquinoline-6-carboxamide] | 2000 | 5620 |  |  |
| COc1cc2c(OC[C@H]3NC(=O)O[C@H]3C)cccc2cc1C(N)=O [Example 234, 3-methoxy-5-{[(4R,5S)-5-methyl-2-oxo-1,3-oxazolidin-4-yl]methoxy}naphthalene-2-carboxamide] | 1.9 | 45 |  |  |
| CC(C)Oc1cc2c(OC[C@@H]3CC(C)(C)C(=O)N3)nccc2cc1C(N)=O [Example 110, 1-{[(2S)-4,4-dimethyl-5-oxopyrrolidin-2-yl]methoxy}-7-(propan-2-yloxy)isoquinoline-6-carboxamide] | 418 | 1170 |  |  |
| CC(C)Oc1cc2c(OC[C@@H]3C[C@@](F)(CO)C(=O)N3)nccc2cc1C(N)=O [Example 164, 1-{[(2S,4R)-4-fluoro-4-(hydroxymethyl)-5-oxopyrrolidin-2-yl]methoxy}-7-(propan-2-yloxy)isoquinoline-6-carboxamide] | 1.7 | 116 |  |  |
| CC(C)Oc1cc2c(OC[C@@H]3C[C@@H](CO)C(=O)N3)nccc2cc1C(N)=O [Example 166, 1-{[(2S,4S)-4-(hydroxymethyl)-5-oxopyrrolidin-2-yl]methoxy}-7-(propan-2-yloxy)isoquinoline-6-carboxamide] | 4.3 | 389 |  |  |
| COc1cc2c(OC[C@H]3NC(=O)[C@]4(F)C[C@H]34)nccc2cc1C(N)=O [Example 317, 1-{[(1R,2S,5S)-5-fluoro-4-oxo-3-azabicyclo[3.1.0]hex-2-yl]methoxy}-7-methoxyisoquinoline-6-carboxamide] |  |  | 0.6 | 22 |
| CC(C)Oc1cc2c(OC[C@@H]3CCCC(=O)N3)nccc2cc1C(N)=O [Example 06, 1-{[(2S)-6-oxopiperidin-2-yl]methoxy}-7-(propan-2-yloxy)isoquinoline-6-carboxamide] | 51 | 472 |  |  |
| CCOc1cc2c(OC[C@H]3NC(=O)[C@@H](F)[C@H]3C)ccnc2cc1C(N)=O [Example 279, 6-ethoxy-4-{[(2S,3S,4S)-4-fluoro-3-methyl-5-oxopyrrolidin-2-yl]methoxy}quinoline-7-carboxamide] | 1.2 | 212 |  |  |
| Cc1nc(-c2cnc(OC[C@@H]3CCC(=O)N3)c3cc(OC(C)C)c(C(N)=O)cc23)cn1C [Example 372, 4-(1,2-dimethyl-1H-imidazol-4-yl)-1-{[(2S)-5-oxopyrrolidin-2-yl]methoxy}-7-(propan-2-yloxy)isoquinoline-6-carboxamide] | 11 | 649 |  |  |
| COc1cc2c(OC[C@@H]3CCC(=O)N3)cncc2cc1C(N)=O [Example 206, 6-methoxy-4-{[(2S)-5-oxopyrrolidin-2-yl]methoxy}isoquinoline-7-carboxamide] | 216 | 4570 |  |  |
| COc1cc2c(OC[C@H]3NC(=O)[C@@H](F)[C@H]3CF)nccc2cc1C(N)=O [Example 367, 1-{[(2S,3R,4S)-4-fluoro-3-(fluoromethyl)-5-oxopyrrolidin-2-yl]methoxy}-7-methoxyisoquinoline-6-carboxamide] | 0.4 | 14 |  |  |
| COc1cc2c(OC[C@H]3NC(=O)[C@]4(F)CC[C@H]34)nccc2cc1C(N)=O [Example 322, 1-{[(1R,2S,5S)-5-fluoro-4-oxo-3-azabicyclo[3.2.0]hept-2-yl]methoxy}-7-methoxyisoquinoline-6-carboxamide] | 6.1 | 26 |  |  |
| COc1cc2c(OC[C@H]3NC(=O)C[C@H]3CF)nccc2cc1C(N)=O [Example 366, 1-{[(2S,3R)-3-(fluoromethyl)-5-oxopyrrolidin-2-yl]methoxy}-7-methoxyisoquinoline-6-carboxamide] |  | 91 | 6.1 |  |
| COc1cc2c(OC[C@H]3NC(=O)C(F)[C@H]3C)ccc(F)c2cc1C(N)=O (stereo in doubt) [Example 220, 8-fluoro-5-{[(2S,3S,4S)-4-fluoro-3-methyl-5-oxopyrrolidin-2-yl]methoxy}-3-methoxynaphthalene-2-carboxamide] | 0.9 | 14 |  |  |
| CC(C)Oc1cc2c(OC[C@@H]3C[C@H](F)C(=O)N3)nccc2cc1C(N)=O [Example 145, 1-{[(2S,4S)-4-fluoro-5-oxopyrrolidin-2-yl]methoxy}-7-(propan-2-yloxy)isoquinoline-6-carboxamide] | 0.4 | 41 |  |  |
| CC(C)Oc1cc2c(OC[C@@H]3C[C@@H](O)C(=O)N3)nccc2cc1C(N)=O [Example 179, 1-{[(2S,4R)-4-hydroxy-5-oxopyrrolidin-2-yl]methoxy}-7-(propan-2-yloxy)isoquinoline-6-carboxamide] | 1.2 | 199 |  |  |
| CC(C)Oc1cc2c(OC[C@@H]3C[C@](C)(F)C(=O)N3)ccnc2cc1C(N)=O [Example 269, 4-{[(2S,4S)-4-fluoro-4-methyl-5-oxopyrrolidin-2-yl]methoxy}-6-(propan-2-yloxy)quinoline-7-carboxamide] | 0.6 | 104 |  |  |

| SMILES | IC50 [1, 3] [nM] | IC50 [2, 4] [nM] | IC50 [1] [nM] | IC50 ([2]; human PBMC, absence of serum, 3 hours, read-out: R848-induced TNFa PBMC IC50) [nM] |
| --- | --- | --- | --- | --- |
| CC[C@@H]1CC(=O)N[C@@H]1COc1nccc2cc(C(N)=O)c(OC)c(F)c12 [Example 363, 1-{[(2S,3R)-3-ethyl-5-oxopyrrolidin-2-yl]methoxy}-8-fluoro-7-methoxyisoquinoline-6-carboxamide] | 11 | 110 |  |  |
| COc1cc2c(OC[C@@H]3CC4(CC4)C(=O)N3)nccc2cc1C(N)=O [Example 245, 7-methoxy-1-{[(6S)-4-oxo-5-azaspiro[2.4]hept-6-yl]methoxy}isoquinoline-6-carboxamide] | 29 | 529 |  |  |
| COc1cc2c(OC[C@H]3NC(=O)O[C@H]3C)nccc2cc1C(N)=O [Example 236, 7-methoxy-1-{[(4R,5S)-5-methyl-2-oxo-1,3-oxazolidin-4-yl]methoxy}isoquinoline-6-carboxamide] | 8.4 | 125 |  |  |
| COc1cc2c(OC[C@H]3NC(=O)[C@@H]4[C@@H](F)[C@@H]43)nccc2cc1C(N)=O [Example 315, 1-{[(1S,2S,5R)-6-fluoro-4-oxo-3-azabicyclo[3.1.0]hex-2-yl]methoxy}-7-methoxyisoquinoline-6-carboxamide] | 1.5 | 45 |  |  |
| C=C=COc1cc2c(OC[C@@H]3CCC(=O)N3)nccc2cc1C(N)=O [Example 319, 1-{[(2S)-5-oxopyrrolidin-2-yl]methoxy}-7-(propadienyloxy)isoquinoline-6-carboxamide] | 1950 | 11000 |  |  |
| CC(C)Oc1cc2c(OC[C@@H]3C[C@@H](CC(F)(F)F)C(=O)N3)nccc2cc1C(N)=O [Example 151, 1-{[(2S,4S)-5-oxo-4-(2,2,2-trifluoroethyl)pyrrolidin-2-yl]methoxy}-7-(propan-2-yloxy)isoquinoline-6-carboxamide] | 1.2 | 25 |  |  |
| COc1cc2c(OC[C@H]3NC(=O)[C@H](F)[C@H]3C3CC3)nccc2cc1C(N)=O [Example 369, 1-{[(2S,3S,4R)-3-cyclopropyl-4-fluoro-5-oxopyrrolidin-2-yl]methoxy}-7-methoxyisoquinoline-6-carboxamide] | 3.7 | 45 |  |  |
| COc1cc2c(OC[C@H]3C[C@@H](F)C(=O)N3)nccc2cc1C(N)=O [Example 275, 1-{[(2R,4R)-4-fluoro-5-oxopyrrolidin-2-yl]methoxy}-7-methoxyisoquinoline-6-carboxamide] | 119 | 5140 |  |  |
| COc1cc2c(OC[C@H]3NC(=O)[C@@H]4[C@@H](CF)[C@@H]43)ccnc2cc1C(N)=O [Example 333, 4-{[(1R,2S,5S)-6-(fluoromethyl)-4-oxo-3-azabicyclo[3.1.0]hex-2-yl]methoxy}-6-methoxyquinoline-7-carboxamide] | 0.3 | 182 |  |  |
| CC[C@]1(F)C[C@@H](COc2ccnc3cc(C(N)=O)c(OC)cc23)NC1=O [Example 259, 4-{[(2S,4S)-4-ethyl-4-fluoro-5-oxopyrrolidin-2-yl]methoxy}-6-methoxyquinoline-7-carboxamide] | 3.1 | 120 |  |  |
| COc1cc2c(OC[C@H]3NC(=O)[C@H]4C3[C@H]4F)nccc2cc1C(N)=O (stereo in doubt) [Example 334, 1-(((1R,2S,5R,6R)-6-fluoro-4-oxo-3-azabicyclo[3.1.0]hexan-2-yl)methoxy)-7-methoxyisoquinoline-6-carboxamide] | 4.2 | 1770 |  |  |
| CCC[C@@H]1CC(=O)N[C@@H]1COc1nccc2cc(C(N)=O)c(OC)cc12 [Example 312, 7-methoxy-1-{[(2S,3R)-5-oxo-3-propylpyrrolidin-2-yl]methoxy}isoquinoline-6-carboxamide] | 1.3 | 26 |  |  |
| COc1cc2c(OC[C@H]3NC(=O)[C@@H](F)[C@H]3C)nccc2cc1C#N [Example 272, 1-{[(2S,3S,4S)-4-fluoro-3-methyl-5-oxopyrrolidin-2-yl]methoxy}-7-methoxyisoquinoline-6-carbonitrile] | 432 | 2470 |  |  |
| CC[C@]1(F)C[C@@H](COc2nccc3cc(C(N)=O)c(OC(C)C)cc23)NC1=O [Example 131, 1-{[(2S,4S)-4-ethyl-4-fluoro-5-oxopyrrolidin-2-yl]methoxy}-7-(propan-2-yloxy)isoquinoline-6-carboxamide] | 0.6 | 29 |  |  |
| COc1cc2c(OC[C@@H]3C[C@H](F)C(=O)N3)nccc2cc1C(N)=O [Example 252, 1-{[(2S,4S)-4-fluoro-5-oxopyrrolidin-2-yl]methoxy}-7-methoxyisoquinoline-6-carboxamide] | 0.9 | 40 |  |  |
| COc1cc2c(OC[C@H]3NC(=O)O[C@@H]3C)nccc2cc1C(N)=O [Example 227, 7-methoxy-1-{[(4R,5R)-5-methyl-2-oxo-1,3-oxazolidin-4-yl]methoxy}isoquinoline-6-carboxamide] | 19 | 749 |  |  |
